Series [1] has as its system CYP1. The note with it: cited from earlier work.
The target in series [2] is T1, CYP1A1 (Homo sapiens, UniProt P04798).
T1 sequence (P04798 1-512): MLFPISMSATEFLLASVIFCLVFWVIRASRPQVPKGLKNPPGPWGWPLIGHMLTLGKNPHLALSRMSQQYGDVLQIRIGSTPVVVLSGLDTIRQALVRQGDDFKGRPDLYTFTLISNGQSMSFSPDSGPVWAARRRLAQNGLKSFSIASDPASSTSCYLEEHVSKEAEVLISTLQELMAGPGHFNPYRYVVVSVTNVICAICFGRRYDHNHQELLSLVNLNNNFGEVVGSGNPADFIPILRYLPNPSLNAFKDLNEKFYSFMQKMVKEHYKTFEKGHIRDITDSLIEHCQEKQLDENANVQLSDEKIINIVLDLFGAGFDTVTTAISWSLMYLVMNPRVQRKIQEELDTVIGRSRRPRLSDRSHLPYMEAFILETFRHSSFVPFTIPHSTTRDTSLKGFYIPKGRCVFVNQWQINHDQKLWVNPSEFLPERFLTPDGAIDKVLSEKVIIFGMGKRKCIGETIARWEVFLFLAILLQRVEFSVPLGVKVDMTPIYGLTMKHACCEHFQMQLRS
In words: in vitro. The note with it: pH 7.4, CYP1A1 enzyme activity (%), MNF 2.5 µM, positive control.
Method: The ethoxyresorufin deethylase (EROD) assay was performed using recombinant human CYP1A1 to determine TnP-mediated inhibition of CYP1A1 enzyme activity according to Wincent et al. [47], with minor changes. In brief, 2.5 nM CYP1A1 was pre-incubated with different concentrations of TnP in Tris-HCl buffer (0.1 M, pH 7.4) with EDTA (1 mM) at 37 °C for 3 min followed by the addition of ethoxyresorufin (0.1 μM) and NADPH (0.4 mM). Formation of resorufin was quantified in triplicates using a Tecan Infinite F200 multiwell plate reader (Tecan Group Ltd., Männedorf, Switzerland) with the excitation/emission wavelengths of 530/590 nm every 4 s for 2 min. The enzyme activity was determined by comparing the rate of resorufin formation compared to the vehicle control DMSO. The TnP concentration causing 50% inhibition of EROD activity (IC50) was estimated by nonlinear dose–response inhibition analysis using GraphPad Prism 9.1 (GraphPad Software, San Diego, CA, USA).
All the concentration were read at least in triplicate. Dimethyl sulfoxide – DMSO was tested
as negative control, and 3’-methoxy-4’-nitroflavone – MNF as positive control.

The test system of series [3] is (DOX)-induced cardiotoxicity. As to conditions: zebrafish; cited from earlier work. The source says:
In addition to its implication in the resolution of inflammation and tissue injury, Asnani et al. recently concluded that inhibition of CYP1 was protective of (DOX)-induced cardiotoxicity.

`O=Cc1c2c(cc3c1=Nc1ccccc1-3)=Nc1ccccc1-2` [FICZ]: the clearance dependence result in series [1] is “clearance is dependent on CYP1”.

`COc1cc(-c2cc(=O)c3ccccc3o2)ccc1[N+](=O)[O-]` [MNF]: the activity in series [2] (replicate I) was found to be 1.54%; in series [2] (replicate II) it was 1.54%; in series [2] (replicate III) it was 1.71%; in series [2] (replicate IV), 1.67%; in series [2] (replicate IX), 0.51%; in series [2] (replicate V) it was 1.31%. Besides, the values for the activity in series [2] (replicate VI), in series [2] (replicate VII) and in series [2] (replicate VIII) were 1.7%, 0.51% and 0.51%, respectively.

With `COc1c2ccoc2cc2oc(C)cc(=O)c12` [visnagin], the “effect on DOX-induced cardiotoxicity” value in series [3] is listed as “cardioprotection”.

(Values after article PMC11435205, “TnP and AHR-CYP1A1 Signaling Crosstalk in an Injury-Induced Zebrafish Inflammation Model” (Pharmaceuticals, 2024).)
